The target of experiment [1] is T1, human pancreatic chymotrypsin (Homo sapiens, UniProt P17538).
T1 construct: purchased Sigma, EMDbiosciences
Kind of experiment: Specificity assay, chymotrypsin. It counts as biochemical. The method, then: (§1) The specificities of compounds of the present disclosure were determined against a variety of serine proteases: human neutrophil elastase (HNE), porcine pancreatic elastase (PPE) and human pancreatic chymotrypsin and one cysteine protease: human liver cathepsin B. In all cases a 96-well plate format protocol using a fluorometric Amino-Methyl-Coumarin (AMC) substrate specific for each enzyme was used as described previously (PCT Patent Application No. WO 00/09543) with some modifications to the serine protease assays. All enzymes were purchased from Sigma, EMDbiosciences while the substrates were from Bachem, Sigma and EMDbiosciences.
(§2) Compound concentrations varied from 100 to 0.4 μM depending on their potency. The enzyme assays were each initiated by addition of substrate to enzyme-inhibitor pre-incubated for 10 min at room temperature and hydrolysis to 15% conversion as measured on CYTOFLUOR®.
50 mM Tris(hydroxymethyl)aminomethane hydrochloride (Tris-HCl) pH 8, 0.5 M Sodium Sulfate (Na2SO4), 50 mM NaCl, 0.1 mM EDTA, 3% DMSO, 0.01% Tween-20 with 5 μM LLVY-AMC and 1 nM Chymotrypsin.
(§3) The percentage of inhibition was calculated using the formula: [1−((UVinh−UVblank)/(UVctl−UVblank))]×100
(§4) A non-linear curve fit was applied to the inhibition-concentration data, and the 50% effective concentration (IC50) was calculated by the use of Excel XLfit software.

Experiment [2] deals with T2, human neutrophil elastase (HNE) (Homo sapiens, UniProt P08246).
T2 construct: purchased Sigma, EMDbiosciences
T2 sequence (P08246 30-267): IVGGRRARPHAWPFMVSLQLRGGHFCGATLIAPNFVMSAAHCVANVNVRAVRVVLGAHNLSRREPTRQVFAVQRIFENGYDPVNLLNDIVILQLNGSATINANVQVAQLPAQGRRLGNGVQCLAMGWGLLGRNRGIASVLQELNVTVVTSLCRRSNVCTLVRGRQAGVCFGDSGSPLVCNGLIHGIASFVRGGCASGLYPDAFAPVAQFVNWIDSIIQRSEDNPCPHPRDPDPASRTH
The experiment can be described thus: Specificity assay, human neutrophil elastase. It counts as biochemical. To be noted: read-out: HLE (specificity assay IC50). The method, then:
as §1, §2
50 mM Tris-HCl, pH 8.0, 50 mM NaCl, 0.1 mM […], 3% DMSO, 0.02% Tween-20, 5 μM succ-AAPV-AMC and 20 nM HNE or 8 nM PPE;
as §3, §4

Experiment [3] concerns the target T3, HCV NS3/4A protease complex, J4L6S strain (Hepatitis C virus genotype 1b, UniProt O92972, C1454S/C1711G).
T3 construct: DNA encoding the recombinant HCV NS3/4A protease complex (amino acids 1027 to 1711) for these strains; His tag (inferred from pET21b vector and Ni-NTA purification); made in house; host or cells: Escherichia coli BL21 (DE3), pET21b
Kind of experiment: FRET peptide assay to monitor HCV NS3/4A proteolytic activity (J4L6S strain). Type of experiment: biochemical, Hepatitis C virus (1b genotype). The source says:
HCV […] protease complexes, derived from the BMS strain, H77 strain or J4L6S strain, were generated, as described below. These purified recombinant proteins were generated for use in a homogeneous assay (see below) to provide an indication of how effective compounds of the present disclosure would be in inhibiting HCV NS3 proteolytic activity.
Serum from an HCV-infected patient was obtained from Dr. T. Wright, San Francisco Hospital. An engineered full-length cDNA (compliment deoxyribonucleic acid) template of the HCV genome (BMS strain) was constructed from DNA fragments obtained by reverse transcription-PCR (RT-PCR) of serum RNA (ribonucleic acid) and using primers selected on the basis of homology between other genotype 1a strains. From the determination of the entire genome sequence, a genotype 1a was assigned to the HCV isolate according to the classification of Simmonds et al. (See Simmonds, P. et al., J. Clin. Microbiol., 31(6), 1493-1503 (1993)). […] The infectious clones, H77 (1a genotype) and J4L6S (1b genotype) were obtained from R. Purcell (NIH) and the sequences are published in GENBANK® (AAB67036, see Yanagi, M. et al., Proc. Natl. Acad. Sci. U.S.A., 94(16):8738-8743 (1997); AF054247, see Yanagi, M. et al., Virology, 244(1):161-172 (1998)).
The H77 and J4L6S strains were used for production of recombinant NS3/4A protease complexes. […]

Results on one compound are retold here after patent publication US7964560B2, “Hepatitis C virus inhibitors” (Bristol-Myers Squibb Company, priority 2008, dated 2011).

T3 sequence (O92972 1027-1711 C1454S/C1711G, one chain of several): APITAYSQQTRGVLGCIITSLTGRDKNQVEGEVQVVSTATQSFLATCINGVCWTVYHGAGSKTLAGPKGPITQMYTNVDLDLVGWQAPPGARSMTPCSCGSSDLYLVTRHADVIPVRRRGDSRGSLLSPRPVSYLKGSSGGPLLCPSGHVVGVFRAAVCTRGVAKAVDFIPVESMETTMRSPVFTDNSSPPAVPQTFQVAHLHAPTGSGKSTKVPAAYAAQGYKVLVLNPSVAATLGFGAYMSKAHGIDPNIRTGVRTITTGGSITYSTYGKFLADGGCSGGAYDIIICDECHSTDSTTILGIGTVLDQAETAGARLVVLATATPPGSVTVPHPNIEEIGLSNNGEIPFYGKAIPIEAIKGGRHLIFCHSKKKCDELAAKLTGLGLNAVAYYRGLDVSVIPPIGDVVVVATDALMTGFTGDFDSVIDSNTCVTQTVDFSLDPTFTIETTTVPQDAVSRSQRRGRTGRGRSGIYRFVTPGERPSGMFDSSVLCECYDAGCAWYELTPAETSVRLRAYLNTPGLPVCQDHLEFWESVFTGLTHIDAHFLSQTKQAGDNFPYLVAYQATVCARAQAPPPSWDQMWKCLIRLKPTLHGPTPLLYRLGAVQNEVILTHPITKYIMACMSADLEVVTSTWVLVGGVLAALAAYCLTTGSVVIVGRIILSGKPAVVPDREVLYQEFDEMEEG
T1 sequence (P17538 19-263): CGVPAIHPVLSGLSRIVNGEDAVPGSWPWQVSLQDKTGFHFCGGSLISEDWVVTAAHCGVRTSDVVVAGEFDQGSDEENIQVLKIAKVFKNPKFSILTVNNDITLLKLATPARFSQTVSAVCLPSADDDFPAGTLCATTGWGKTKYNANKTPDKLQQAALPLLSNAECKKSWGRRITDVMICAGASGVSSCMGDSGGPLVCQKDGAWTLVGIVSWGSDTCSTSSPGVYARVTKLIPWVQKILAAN

By IC50 is commonly meant the concentration that inhibits the measured activity by half. Regarding `C=C[C@@H]1C[C@]1(NC(=O)[C@@H]1C[C@@](SCCCC)(c2ccc(-c3ccccc3)cc2)CN1C(=O)[C@@H](NC(=O)OC(C)(C)C)C(C)(C)C)C(=O)NS(=O)(=O)C1CC1` [Example 1, tert-butyl (S)-1-((2S,4R)-4-(biphenyl-4-yl)-4-(butylthio)-2-((1R,2S)-1-(cyclopropylsulfonylcarbamoyl)-2-vinylcyclopropylcarbamoyl)pyrrolidin-1-yl)-3,3-dimethyl-1-oxobutan-2-ylcarbamate], the IC50 in experiment [1] is 13.2 µM; in experiment [2], above 12.1 µM; in experiment [3], 0.0011 µM.
